Experimental data taken from patent US20130338154A1, “MGLUR4 ALLOSTERIC POTENTIATORS, COMPOSITIONS, AND METHODS OF TREATING NEUROLOGICAL DYSFUNCTION” (Vanderbilt University, priority 2009, published 2013).

Tests used:
mGluR4 [1] = target: T1, mGluR4 (Homo sapiens, UniProt Q14833); test: mGluR4 potentiation assay (Table I): response to EC20 agonist in presence of compound; type: cell-based; conditions: for EC50: potentiation of mGluR4 agonist response
Target sequence in this assay (Q14833 whole entry): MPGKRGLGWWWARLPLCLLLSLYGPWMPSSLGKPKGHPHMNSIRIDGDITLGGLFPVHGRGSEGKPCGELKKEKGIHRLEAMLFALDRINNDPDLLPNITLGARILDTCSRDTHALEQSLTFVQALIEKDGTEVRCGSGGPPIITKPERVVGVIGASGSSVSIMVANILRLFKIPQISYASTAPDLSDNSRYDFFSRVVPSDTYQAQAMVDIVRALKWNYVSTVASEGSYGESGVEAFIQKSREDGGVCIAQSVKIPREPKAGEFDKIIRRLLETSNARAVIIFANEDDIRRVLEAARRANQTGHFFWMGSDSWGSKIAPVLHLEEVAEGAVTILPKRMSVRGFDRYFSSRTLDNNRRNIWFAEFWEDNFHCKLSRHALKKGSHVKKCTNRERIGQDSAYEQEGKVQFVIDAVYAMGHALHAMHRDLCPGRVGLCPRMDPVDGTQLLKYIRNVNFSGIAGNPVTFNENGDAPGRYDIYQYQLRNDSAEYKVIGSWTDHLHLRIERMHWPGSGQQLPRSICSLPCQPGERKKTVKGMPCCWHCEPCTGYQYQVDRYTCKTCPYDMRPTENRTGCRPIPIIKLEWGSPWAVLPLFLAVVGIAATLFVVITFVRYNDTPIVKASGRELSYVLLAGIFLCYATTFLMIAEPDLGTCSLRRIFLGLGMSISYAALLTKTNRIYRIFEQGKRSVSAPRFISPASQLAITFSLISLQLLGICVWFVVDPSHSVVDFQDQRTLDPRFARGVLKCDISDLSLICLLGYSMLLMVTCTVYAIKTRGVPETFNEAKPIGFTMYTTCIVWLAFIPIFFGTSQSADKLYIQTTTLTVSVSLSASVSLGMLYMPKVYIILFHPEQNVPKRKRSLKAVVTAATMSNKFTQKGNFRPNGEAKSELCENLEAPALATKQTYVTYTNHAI

mGluR4 [2] = target: T1, mGluR4; test: human mGluR4 potentiation in transfected CHO cells, Ca2+-sensitive fluorescent dye; type: cell-based; parameters: expressed in transfected cells; host or cells: CHO cells; conditions: unit inferred, read-out: hEC50
Target sequence in this assay (Q14833 33-912): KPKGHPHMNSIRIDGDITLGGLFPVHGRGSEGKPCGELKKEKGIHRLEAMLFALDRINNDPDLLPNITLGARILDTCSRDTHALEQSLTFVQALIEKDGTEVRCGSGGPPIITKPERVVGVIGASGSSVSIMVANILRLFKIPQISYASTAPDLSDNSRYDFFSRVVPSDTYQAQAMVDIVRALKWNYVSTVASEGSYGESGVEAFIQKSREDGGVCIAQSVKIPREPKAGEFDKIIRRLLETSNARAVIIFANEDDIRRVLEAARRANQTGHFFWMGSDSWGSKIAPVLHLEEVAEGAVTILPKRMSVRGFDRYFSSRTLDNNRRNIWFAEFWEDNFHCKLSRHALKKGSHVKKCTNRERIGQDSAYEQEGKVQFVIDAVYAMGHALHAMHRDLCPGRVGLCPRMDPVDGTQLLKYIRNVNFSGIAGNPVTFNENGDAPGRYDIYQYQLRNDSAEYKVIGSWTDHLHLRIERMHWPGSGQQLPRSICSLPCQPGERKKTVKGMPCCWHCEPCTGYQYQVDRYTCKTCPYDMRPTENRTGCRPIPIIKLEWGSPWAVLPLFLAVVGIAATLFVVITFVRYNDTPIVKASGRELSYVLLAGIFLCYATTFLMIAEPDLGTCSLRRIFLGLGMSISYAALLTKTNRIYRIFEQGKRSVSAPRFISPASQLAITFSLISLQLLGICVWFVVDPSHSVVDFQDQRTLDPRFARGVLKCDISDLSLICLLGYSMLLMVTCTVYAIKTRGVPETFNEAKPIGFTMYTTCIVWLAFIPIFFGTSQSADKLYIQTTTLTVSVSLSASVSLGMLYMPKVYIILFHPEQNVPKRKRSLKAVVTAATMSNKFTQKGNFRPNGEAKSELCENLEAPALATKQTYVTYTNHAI

SMILES	% Glu Max (mGluR4 [1]; maximum extent of potentiation) [%]	EC50 (mGluR4 [1]) [nM]	EC50 (mGluR4 [2]) [nM]	Emax (mGluR4 [1]; maximum extent of potentiation, read-out: % Glu Max) [%]
O=C(Nc1ccn(S(=O)(=O)c2cccc(-c3ccccc3)c2)c1)c1ccccn1 [Example 12]	122	3310		
O=C(Nc1ccn(S(=O)(=O)Cc2ccccc2Cl)c1)c1ccccn1 [Example 30]	163	83		
Cc1ccc(CS(=O)(=O)n2ccc(NC(=O)c3ccccn3)c2)cc1C [Example 33]	178	215		
O=C(Nc1ccn(S(=O)(=O)Cc2ccc(Cl)cc2Cl)c1)c1ccccn1 [Example 31]	206	445		
O=C(Nc1ccn(S(=O)(=O)Cc2cccc(Cl)c2)c1)c1ccccn1 [Example 25]	132	839		
N#Cc1cccc(S(=O)(=O)n2ccc(NC(=O)c3ccccn3)c2)c1 [Example 13]	104	282		
Cc1ccc(S(=O)(=O)n2ccc(NC(=O)c3nccs3)c2)cc1 [Example 51, N-(1-tosyl-1H-pyrrol-3-yl)thiazole-2-carboxamidc]			348	
O=C(Nc1ccn(S(=O)(=O)Cc2cccc(C(F)(F)F)c2)c1)c1ccccn1 [Example 27]	117	1730		
O=C(Nc1ccn(S(=O)(=O)c2ccc(Cl)cc2)c1)c1ccccn1 [Example 21]	215	655		
Cc1ccccc1CS(=O)(=O)n1ccc(NC(=O)c2ccccn2)c1 [Example 28]	164	1130		
O=C(Nc1ccn(S(=O)(=O)c2ccc3c(c2)CCO3)c1)c1ccccn1 [Example 145, N-(1-((2,3-dihydrobenzoruran-5-yl)sulfonyl)-1H-pyrrol-3-yl)picolinamide]			78.4	
O=C(Nc1ccn(S(=O)(=O)c2ccccc2Cl)c1)c1ccccc1 [Example 46, N-(1-(2-chlorophenylsulfonyl)-1H-pyrrol-3-yl)benzamide]				85
Cc1ccc(S(=O)(=O)n2ccc(NC(=O)c3ccccn3)c2)cc1 [Example 20]	188	57		
O=C(Nc1ccn(S(=O)(=O)C2CCCCC2)c1)c1ccccn1 [Example 22]	189	1940		
O=C(Nc1ccn(S(=O)(=O)c2ccccc2OC(F)(F)F)c1)c1ccccn1 [Example 7]	90	203		
Cc1cccc(S(=O)(=O)n2ccc(NC(=O)c3ccccn3)c2)c1 [Example 15]	175	90		
O=C(Nc1ccn(S(=O)(=O)c2cccc(Cl)c2)c1)c1ccccn1 [Example 14]	139	106		
O=C(Nc1ccn(S(=O)(=O)Cc2ccc(F)cc2F)c1)c1ccccn1 [Example 32]	159	188		
Cc1cccc(CS(=O)(=O)n2ccc(NC(=O)c3ccccn3)c2)c1 [Example 38]	289	1450		
O=C(Nc1ccn(S(=O)(=O)Cc2cc(Cl)cc(Cl)c2)c1)c1ccccn1 [Example 35]	156	3830		

Further lines, results first:

% Glu Max (mGluR4 [1]; maximum extent of potentiation) [%]	EC50 (mGluR4 [1]) [nM]	EC50 (mGluR4 [2]) [nM]	Emax (mGluR4 [1]; maximum extent of potentiation, read-out: % Glu Max) [%]	SMILES
140	587			O=C(Nc1ccn(S(=O)(=O)Cc2cccc(F)c2)c1)c1ccccn1 [Example 24]
		854		Cc1ccc(S(=O)(=O)n2ccc(NC(=O)c3ccco3)c2)cc1 [Example 165, N-(1-tosyl-1H-pyrrol-3-yl)furan-2-carboxamidc]
161	473			O=C(Nc1ccn(S(=O)(=O)Cc2ccccc2F)c1)c1ccccn1 [Example 29]
		666		O=C(Nc1ccn(S(=O)(=O)c2ccc(C(F)(F)F)nc2)c1)c1ccccn1 [Example 120, N-(1-((6-(trifluoromethyl)pyricIin-3-yl)sulfonyl)-1H-pyrrol-3-yl)picolinamide]
158	154			O=C(Nc1ccn(S(=O)(=O)Cc2ccc(C(F)(F)F)cc2)c1)c1ccccn1 [Example 37]
		249		Cc1cc(S(=O)(=O)n2ccc(NC(=O)c3ccccn3)c2)cnc1Cl [Example 119, N-(1-((6-chloro-5-metliylpyridin-3-yl)sulfonyl)-1H-pyrrol-3-yl)picolinamide]
159	828			O=C(Nc1ccn(S(=O)(=O)Cc2ccc(Cl)c(Cl)c2)c1)c1ccccn1 [Example 34]
151	162			O=C(Nc1ccn(S(=O)(=O)c2ccc(OC(F)F)cc2)c1)c1ccccn1 [Example 16]
30	258			CC(C)Cc1ccc(S(=O)(=O)n2ccc(NC(=O)c3ccccn3)c2)cc1 [Example 17]
		256		Cc1ccc(S(=O)(=O)n2ccc(NC(=O)c3ccccn3)c2)o1 [Example 142, N-(1-((5-methylruran-2-yl)sulfonyl)-1H-pyrrol-3-yl)picolinamide]
		1290		Cc1ccnc(S(=O)(=O)n2ccc(NC(=O)c3ccccn3)c2)c1 [Example 117, N-(1-((4-mcthylpyridin-2-yl)sulfonyl)-1H-pyrrol-3-yl)picolinamide]
93	546			O=C(Nc1ccn(S(=O)(=O)c2ccc(OC(F)(F)F)cc2)c1)c1ccccn1 [Example 18]
85	413			O=C(Nc1ccn(S(=O)(=O)c2ccc(C(F)(F)F)cc2)c1)c1ccccn1 [Example 23]
137	280			O=C(Nc1ccn(S(=O)(=O)c2ccc(F)cc2)c1)c1ccccn1 [Example 19]
		396		CC(c1ccccc1F)S(=O)(=O)n1ccc(NC(=O)c2ccccn2)c1 (stereo not shown) [Example 99, N-(1-((1-(2-fluorophenyl)ethyl)sulfonyl)-1H-pyrrol-3-yl)picolinamidc]
